Data taken from patent publication US5043353A, “A80789 polyether antibiotic” (Eli Lilly and Company, priority 1989, dated 1991).
In brackets after ≈: the same amount, converted by molar mass. Positions of bridges follow the written chain, without caps; N, C: chain ends. Non-standard residues stand in square brackets, D forms with d. Residues, ends and D or L forms follow the SMILES beside them. *: point of attachment. Ileψ(thiazoline)Cys = CC[C@H](C)[C@H](N)C1=N[C@H](C(=O)*)CS1; dOrn = NCCC[C@@H](N)C(=O)O

Experiments:
coccidiosis = conditions: alone; Science, 122: 244 (1955); cited from earlier work
[1] = tested on: Pseudomonas aeruginosa PS18; assay: Standard agar-dilution assay, MIC; format: cell-based; conditions: 24-hour incubation
Procedure: (§1) The A80789 compounds have antibacterial and anticoccidial activity. A80789 compounds are especially active against anaerobic bacteria. The minimal inhibitory concentrations (MIC's) at which A80789 inhibits various bacteria, as determined by standard agar-dilution assays, are summarized in Tables III and IV. End points were read after 24-hour incubation.

[2] = tested on: Pseudomonas aeruginosa X528; assay: Standard agar-dilution assay, MIC; format: cell-based; conditions: 24-hour incubation
Procedure: as §1

[3] = tested on: Staphylococcus aureus X400; assay: Standard agar-dilution assay, MIC; format: cell-based; conditions: 24-hour incubation
Procedure: as §1

[4] = tested on: Streptococcus faecium X66; assay: Standard agar-dilution assay, MIC; format: cell-based; conditions: 24-hour incubation, reclassified as Enterococcus faecium X66
Procedure: as §1

[5] = tested on: Staphylococcus epidermidis Epi 1; assay: Standard agar-dilution assay, MIC; format: cell-based; conditions: EPI1, 24-hour incubation
Procedure: as §1

[6] = tested on: Pseudomonas aeruginosa X239; assay: Standard agar-dilution assay, MIC; format: cell-based; conditions: 24-hour incubation
Procedure: as §1

Proteus sp. = assay: Standard agar-dilution assay, MIC; format: cell-based; conditions: 24-hour incubation
Procedure: as §1

Escherichia coli EC14 = assay: Standard agar-dilution assay, MIC; format: cell-based; conditions: 24-hour incubation
Procedure: as §1

[7] = tested on: Pseudomonas aeruginosa PS72; assay: Standard agar-dilution assay, MIC; format: cell-based; conditions: 24-hour incubation
Procedure: as §1

[8] = tested on: Staphylococcus epidermidis 222; assay: Standard agar-dilution assay, MIC; format: cell-based; conditions: 24-hour incubation
Procedure: as §1

[9] = tested on: Streptococcus faecalis 2041; assay: Standard agar-dilution assay, MIC; format: cell-based; conditions: 24-hour incubation, reclassified as Enterococcus faecalis 2041
Procedure: as §1

[10] = tested on: Haemophilus influenzae C.L.; assay: Standard agar-dilution assay, MIC; format: cell-based; conditions: 24-hour incubation
Procedure: as §1

Shigella sonnei = assay: Standard agar-dilution assay, MIC; format: cell-based; conditions: 24-hour incubation
Procedure: as §1

[11] = tested on: Staphylococcus aureus X1.1; assay: Standard agar-dilution assay, MIC; format: cell-based; conditions: 24-hour incubation
Procedure: as §1

[12] = tested on: Enterobacter aerogenes C32; assay: Standard agar-dilution assay, MIC; format: cell-based; conditions: Klebsiella aerogenes, 24-hour incubation
Procedure: as §1

Escherichia coli TEM = assay: Standard agar-dilution assay, MIC; format: cell-based; conditions: 24-hour incubation
Procedure: as §1

[13] = tested on: Enterobacter aerogenes EB17; assay: Standard agar-dilution assay, MIC; format: cell-based; conditions: Klebsiella aerogenes, 24-hour incubation
Procedure: as §1

[14] = tested on: Streptococcus pyogenes C203; assay: Standard agar-dilution assay, MIC; format: cell-based; conditions: 24-hour incubation
Procedure: as §1

[15] = tested on: Staphylococcus aureus V41; assay: Standard agar-dilution assay, MIC; format: cell-based; conditions: 24-hour incubation
Procedure: as §1

Salmonella sp = assay: Standard agar-dilution assay, MIC; format: cell-based; conditions: 24-hour incubation
Procedure: as §1

Serratia marcescens X99 = assay: Standard agar-dilution assay, MIC; format: cell-based; conditions: 24-hour incubation
Procedure: as §1

[16] = tested on: Haemophilus influenzae 76; assay: Standard agar-dilution assay, MIC; format: cell-based; conditions: 24-hour incubation
Procedure: as §1

Klebsiella sp. = assay: Standard agar-dilution assay, MIC; format: cell-based; conditions: 24-hour incubation
Procedure: as §1

[17] = tested on: Staphylococcus aureus S13E; assay: Standard agar-dilution assay, MIC; format: cell-based; conditions: 24-hour incubation
Procedure: as §1

Escherichia coli N10 = assay: Standard agar-dilution assay, MIC; format: cell-based; conditions: 24-hour incubation
Procedure: as §1

[18] = tested on: Streptococcus pneumoniae Park 1; assay: Standard agar-dilution assay, MIC; format: cell-based; conditions: PARK1, 24-hour incubation
Procedure: as §1

Pseudorabies virus = assay: microbe, parasite or virus in culture; format: cell-based; conditions: Suid alphaherpesvirus 1, read-out: level at which active
Eimeria acervulina = assay: Feeding experiments in infected chicks; format: in vivo; conditions: in the feed of young chickens; chicks infected with Eimeria acervulina
Vaccina = assay: microbe, parasite or virus in culture; format: cell-based; conditions: tissue-culture tests; read-out: level at which active
Great Lakes influenza = assay: microbe, parasite or virus in culture; format: cell-based; conditions: read-out: level at which active
[19] = tested on: Clostridium perfringens 81; assay: microbe, parasite or virus in culture; format: cell-based; conditions: Clostridium perfringens, 81, 24 h
Para influenza = assay: microbe, parasite or virus in culture; format: cell-based; conditions: read-out: level at which active
Rhino viruses = assay: microbe, parasite or virus in culture; format: cell-based; conditions: tissue-culture tests; read-out: level at which active
HSV II = assay: microbe, parasite or virus in culture; format: cell-based, Herpes (HSV II); conditions: tissue-culture tests; read-out: level at which active
Solubility = format: physicochemical; conditions: free acid form
[20] = tested on: Clostridium septicum 1128; assay: Standard agar-dilution assay, MIC (anaerobic bacteria); format: cell-based; conditions: 24-hour incubation
Procedure: as §1

[21] = tested on: Propionibacterium acnes 79; assay: as above; format: cell-based; conditions: Cutibacterium acnes, 24-hour incubation
Procedure: as §1

[22] = tested on: Bacteroides corredens 1874; assay: as above; format: cell-based; conditions: 24-hour incubation
Procedure: as §1

[23] = tested on: Bacteroides fragilis 1936B; assay: as above; format: cell-based; conditions: 24-hour incubation
Procedure: as §1

[24] = tested on: Bacteroides vulgatis 1211; assay: as above; format: cell-based; conditions: 24-hour incubation
Procedure: as §1

[25] = tested on: Fusobacterium symbiosum 1470; assay: as above; format: cell-based; conditions: 24-hour incubation
Procedure: as §1

Bacteroides fragilis 111 = assay: as above; format: cell-based; conditions: 24-hour incubation
Procedure: as §1

[26] = tested on: Bacteroides melaninogenicus 2736; assay: as above; format: cell-based; conditions: 24-hour incubation
Procedure: as §1

[27] = tested on: Peptostreptococcus intermedius 1264; assay: as above; format: cell-based; conditions: 24-hour incubation
Procedure: as §1

[28] = tested on: Peptostreptococcus anaerobius 1428; assay: as above; format: cell-based; conditions: 24-hour incubation
Procedure: as §1

[29] = tested on: Clostridium difficile 2994; assay: as above; format: cell-based; conditions: Clostridioides difficile, 24-hour incubation
Procedure: as §1

[30] = tested on: Bacteroides fragilis 1877; assay: as above; format: cell-based; conditions: 24-hour incubation
Procedure: as §1

[31] = tested on: Bacteroides thetaiotaomicron 1438; assay: as above; format: cell-based; conditions: 24-hour incubation
Procedure: as §1

[32] = tested on: Eubacterium aerofaciens 1235; assay: as above; format: cell-based; conditions: Collinsella aerofaciens, 24-hour incubation
Procedure: as §1

Peptococcus prevoti 1281 = assay: as above; format: cell-based; conditions: 24-hour incubation
Procedure: as §1

[33] = tested on: Peptococcus asaccharolyticus 1302; assay: as above; format: cell-based; conditions: Peptoniphilus asaccharolyticus, 24-hour incubation
Procedure: as §1

[34] = tested on: Bacteroides melaninogenicus 1856/28; assay: as above; format: cell-based; conditions: Prevotella intermedia, 24-hour incubation
Procedure: as §1

[35] = tested on: Fusobacterium necrophorum 6054A; assay: as above; format: cell-based; conditions: 24-hour incubation
Procedure: as §1

adult housefly = assay: Insecticidal activity; format: in vivo
From the text: The A80789 compounds are also useful as insecticides. For example, A80789 is active against adult housefly at levels as low as 100 ppm.

HSV I = assay: microbe, parasite or virus in culture; format: cell-based, Herpes (HSV I); conditions: read-out: level at which active
Culture A80789 = assay: Antibiotic sensitivity disc test on the producing culture; format: cell-based, Streptomyces hygroscopicus; conditions: ISP No. 2 agar
Procedure: Resistance to antibiotics was measured by padding antibiotic sensitivity discs onto the surface of seeded ISP No. 2 agar plates. Resistance was scored as (+) when no zone of inhibition was observed and as (-) when a zone of inhibition was observed.

O=C(Nc1ccc([N+](=O)[O-])cc1)Nc1ccc([N+](=O)[O-])cc1 [4,4'-dinitrocarbanilide]
anticoccidial activity (coccidiosis): exhibits anticoccidial activity

COC1CCC(OC2C(C)C3(OC(CC4OC(O)(C(C)C(=O)O)C(C)C(OC)C4C)CC(OC)C3C)OC2(C)C2CCC(C3CCC(C4OC(C)(O)C(C)CC4C)O3)O2)OC1C (centres unmarked) [A80789]
MIC [1]: > 128 µg/mL | MIC [2]: > 128 µg/mL | MIC [3]: 0.25 µg/mL (≈ 0.282 µM) | MIC [4]: > 128 µg/mL | MIC [5]: 0.25 µg/mL (≈ 0.282 µM) | MIC [6]: > 128 µg/mL | MIC (Proteus sp.): > 128 µg/mL | MIC (Escherichia coli EC14): > 128 µg/mL | MIC [7]: > 128 µg/mL | MIC [8]: 0.125 µg/mL (≈ 0.141 µM) | MIC [9]: > 128 µg/mL | MIC [10]: > 128 µg/mL | MIC (Shigella sonnei): > 128 µg/mL | MIC [11]: 0.25 µg/mL (≈ 0.282 µM) | MIC [12]: > 128 µg/mL | MIC (Escherichia coli TEM): > 128 µg/mL | MIC [13]: > 128 µg/mL | MIC [14]: 0.03 µg/mL (≈ 0.0339 µM) | MIC [15]: 0.25 µg/mL (≈ 0.282 µM) | MIC (Salmonella sp): > 128 µg/mL | MIC (Serratia marcescens X99): > 128 µg/mL | MIC [16]: > 128 µg/mL | MIC (Klebsiella sp.): > 128 µg/mL | MIC [17]: 0.25 µg/mL (≈ 0.282 µM) | MIC (Escherichia coli N10): > 128 µg/mL | MIC [18]: 0.03 µg/mL (≈ 0.0339 µM) | minimal effective concentration (Pseudorabies virus): < 0.078 µg/mL | level in feed (as low as) that caused a reduction in the number of lesions (Eimeria acervulina): 100 ppm | minimal effective concentration (Vaccina): 2000 µg/mL | minimal effective concentration (Great Lakes influenza): 2000 µg/mL | MIC [19]: 0.5 µg/mL (≈ 0.565 µM) | minimal effective concentration (Para influenza): 2000 µg/mL | minimal effective concentration (Rhino viruses): 2000 µg/mL | minimal effective concentration (HSV II): 2000 µg/mL | Solubility (Solubility; in water): Insoluble | Solubility (Solubility; lower alcohols such as methanol, acetone, ethyl acetate, chloroform, diethyl ether, benzene, toluene, warm hexane): soluble | MIC [20]: 0.5 µg/mL (≈ 0.565 µM) | MIC [21]: 0.25 µg/mL (≈ 0.282 µM) | MIC [22]: 8 µg/mL (≈ 9.04 µM) | MIC [23]: 8 µg/mL (≈ 9.04 µM) | MIC [24]: 1 µg/mL (≈ 1.13 µM) | MIC [25]: 2 µg/mL (≈ 2.26 µM) | MIC (Bacteroides fragilis 111): 8 µg/mL (≈ 9.04 µM) | MIC [26]: 8 µg/mL (≈ 9.04 µM) | MIC [27]: 0.125 µg/mL (≈ 0.141 µM) | MIC [28]: 0.25 µg/mL (≈ 0.282 µM) | MIC [29]: 0.5 µg/mL (≈ 0.565 µM) | MIC [30]: 8 µg/mL (≈ 9.04 µM) | MIC [31]: 128 µg/mL (≈ 145 µM) | MIC [32]: 0.5 µg/mL (≈ 0.565 µM) | MIC (Peptococcus prevoti 1281): 0.125 µg/mL (≈ 0.141 µM) | MIC [33]: ≤ 0.03 µg/mL | MIC [34]: 4 µg/mL (≈ 4.52 µM) | MIC [35]: 2 µg/mL (≈ 2.26 µM) | level (as low as) at which active (adult housefly): 100 ppm | minimal effective concentration (HSV I): 2000 µg/mL

CC[C@H](C)[C@H](N)C1=N[C@H](C(=O)N[C@@H](CC(C)C)C(=O)N[C@H](CCC(=O)O)C(=O)N[C@H](C(=O)N[C@H]2CCCCNC(=O)[C@H](CC(N)=O)NC(=O)[C@@H](CC(=O)O)NC(=O)[C@H](Cc3cnc[nH]3)NC(=O)[C@@H](Cc3ccccc3)NC(=O)[C@H]([C@@H](C)CC)NC(=O)[C@@H](CCCN)NC2=O)[C@@H](C)CC)CS1 [bacitracin] ({Ileψ(thiazoline)Cys}-L[dE]IK[dOrn]I[dF]H[dD]N; lactam 4-C)
Resistance of culture to antibiotic (Culture A80789; disc 10 units): sensitive

CC(=O)OCC1=C(C(=O)O)N2C(=O)[C@@H](NC(=O)Cc3cccs3)[C@H]2SC1 [cephalothin]
Resistance of culture to antibiotic (Culture A80789; disc 30 mcg): sensitive

CCC[C@@H]1C[C@@H](C(=O)N[C@@H]([C@H]2O[C@H](SC)[C@H](O)[C@@H](O)[C@H]2O)[C@@H](C)O)N(C)C1 [lincomycin]
Resistance of culture to antibiotic (Culture A80789; disc 2 mcg): resistant

CO[C@H]1C[C@H](O[C@H]2[C@H](C)[C@@H](O[C@@H]3O[C@H](C)C[C@H](N(C)C)[C@H]3O)[C@@H](C)C[C@@]3(CO3)C(=O)[C@H](C)[C@@H](O)[C@@H](C)[C@@H](C)OC(=O)[C@@H]2C)O[C@@H](C)[C@@H]1O [oleandomycin]
Resistance of culture to antibiotic (Culture A80789; disc 15 mcg): sensitive

CC1(C)S[C@@H]2[C@H](NC(=O)Cc3ccccc3)C(=O)N2[C@H]1C(=O)O [penicillin G]
Resistance of culture to antibiotic (Culture A80789; disc 10 units): resistant
